Entries after “also recorded” stand apart in the source; their conditions may differ.
Experiments:
Type in all cases: in vivo, mouse
C57BL/6 normal mice = test: IOP measurement (applanation tonometer) after transscleral ciliary body PDT in C57BL/6 normal mice
Method: All experiments were performed in accordance with the Association for Research in Vision and Ophthalmology Statement for the Use of Animals in Ophthalmic and Vision Research. C57BL/6 female mice aged 3 months (n=20) were used as the normal model. DBA/2J female mice aged 8 months (n=20) were used as the glaucoma mouse model. One eye of each animal was treated and the other eye served as a control (for both the normal and glaucoma models). Animals were housed in covered cages, were fed with a standard rodent diet ad libitum and were kept under constant 12 hour light-12 hour dark cycles. For general anesthesia, a mixture of ketamine (100 mg/kg) and xylazine (9 mg/kg) was administered intraperitoneally.
Verteporfin photosensitizer (Novartis Ophthalmics, Inc., Duluth, Ga.) was used in these experiments. The mice were systemically anesthetized prior to PDT, and the photosensitizer dye was administered to the animals by tail vain injections using a 30 G needle 5 minutes before laser irradiation. A dose of 2.0 or 4.0 mg/kg was used in C57BL/6 normal mice and of 1.0 mg/kg was used in DBA/2J mice. The laser irradiation to the ciliary body was applied transsclerally using a 600 μm optical fiber at a wavelength of light of 689 nm from a Diode Laser, with an irradiance of 1800 mW/cm^2 and a fluence of 100 J/cm^2 (Lumenis, Santa Clara, Calif.). […] In the C57BL/6 and DBA/2J mice, 16 and 8 spots, respectively, were irradiated to overlap with one another. In the eyes prepared for lectin labeling and terminal deoxynucleotide transferase-mediated nick end labeling (TUNEL) staining (a measure of apoptosis), PDT was performed in C57BL/6 mice to cover 180 degrees of the ciliary body at a 4.0 mg/kg verteporfin dose to compare the degree of staining between irradiated area and non-irradiated area. Retreatment was performed in C57BL/6 normal mice which had been treated with 2.0 mg/kg of verteporfin after the IOP measurement at post-PDT day 7 using the same light parameters.
The IOP was measured using a previously reported applanation tonometer (Ahamed et al. (2003) IOVS 44:ARVO E-Abstract 3336) (n=12 in DBA/2J mice, n=5 in C57BL/6 mice at each dose). The principle of applanation tonometry employs fiber-optic gauges which are designed around a Fabry-Perot interferometer (FPI) (FTI-10; FISO Technologies, Inc., Quebec, Canada). FPI consists of two mirrors facing each other, the space separating the mirrors being called the cavity length. Light reflected in the FPI is wavelength-modulated in exact accordance with the cavity length. FPI gauges convert pressure into cavity length variations which correlate with IOP.
IOP was measured under general anesthesia. Standardization of the plane of anesthesia was obtained as described previously (John et al. (1997) INVEST. OPHTHALMOL. VIS. SCI. 38:249-53). Anesthesia was administered to one mouse at a time. […] Then anesthesia was injected in the next mouse.
As soon as the mice were anesthetized sufficiently, they were placed on a surgical platform. When the pressure sensor applanated a central area of mouse cornea under a dissecting microscope, the IOP (psi) was measured by the device 10 times automatically. The resulting pressures were converted into mmHg units by multiplying the obtained mean value by […]. The LOP was measured every 2 days in the first week, then twice a week until 4 weeks after PDT, and then once a week until 8 weeks after PDT.

retinal ganglion cells = test: Retinal ganglion cell (RGC) count in DBA/2J mice, fluorochrome retrograde labeling
Source text: Four weeks after the end of IOP follow up, RGC was counted in DBA/2J mice (11 months old) as described previously (Levkovitch-Verbin et al. (2000) INVEST. OPHTHALMOL. VIS. SCI. 41:4169-74, Danias et al. (2003) INVEST. OPHTHALMOL. VIS. SCI. 44:5151-62) with slight modification (n=4). After the mice were anesthetized, the skin over the cranium was incised, and the scalp was exposed. Holes approximately 2 mm in diameter were drilled in the skull 4 mm posterior to the bregma, 1 mm lateral to the midline on both sides of the midline raphe. The neurotracer dye fluorochrome (Fluoro-gold, Englewood, Colo.) (4% solution in saline) was directly applied (1 μL, at a rate of 0.5 μL/min) at a depth of 2 mm from the brain surface using a Hamilton syringe (Hamilton, Reno, Nev.). Skull openings then were sealed with antibiotic ointment. The overlying skin was sutured and antibiotic ointment applied externally.
Seven days after the application of fluorochrome, the eyes were enucleated. […] Cell counting was performed as previously described (Nakazawa et al. (2002) INVEST. OPHTHALMOL. VIS. SCI. 43:3319-26) under a fluorescence microscope (Leica Microsystems, Wetzlar, Germany) using a UV filter set. RGC densities were determined by counting the tracer-labeled RGCs in 12 distinct areas of 9.0×10^−2 mm^2 each (three areas per retinal quadrant at 1/6, 3/6 and 5/6 of the retinal radius). […]

DBA/2J mice = test: Ocular complications of ciliary body PDT in DBA/2J mice (preliminary and changed parameters)

verteporfin
reduction of mean IOP of treated eyes compared to the control eyes (C57BL/6 normal mice; 2 mg/kg i.v., 360 degrees, 3 days after treatment, p<0.01): 41.3%
reduction of mean IOP of treated eyes compared to the control eyes (C57BL/6 normal mice; 2 mg/kg i.v., 689 nm, 100 J/cm^2, 360 degrees, 1 day after treatment, p<0.05): 35.1%
IOP reduction, preliminary experiments (C57BL/6 normal mice; 2.0 mg/kg, 180° of the ciliary body irradiated): significant IOP reduction was not obtained
time by which mean IOP returned to the level of the fellow control eyes (C57BL/6 normal mice; 2.0 mg/kg, after first treatment): ≤ 7 days
mean IOP of treated eyes (C57BL/6 normal mice; 2 mg/kg, retreatment at day 7, 10 days after first PDT): 8.7±2.6 mmHg
mean IOP of treated eyes (C57BL/6 normal mice; 2 mg/kg, retreatment at day 7, 14 days after first PDT): 9.5±2.1 mmHg
time by which mean IOP returned to the level of the control eyes (C57BL/6 normal mice; 2 mg/kg, with retreatment at day 7, days after PDT): ≤ 17 days
mean IOP in treated eyes versus fellow control eyes (C57BL/6 normal mice; 2 mg/kg, with retreatment, 28 and 42 days after PDT): statistically lower than the level of fellow control eyes
duration of significant reduction of mean IOP (C57BL/6 normal mice; 4 mg/kg): 14 days
mean IOP of treated eyes (C57BL/6 normal mice; 4 mg/kg i.v., 360 degrees, 1 day after treatment, p<0.05): 9.2±2.4 mmHg
time by which mean IOP returned to the level of the fellow control eyes (C57BL/6 normal mice; 4 mg/kg, after treatment): ≤ 17 days
reduction of mean IOP of treated eyes compared to the control eyes (C57BL/6 normal mice; 4 mg/kg, 1 day after treatment): 42.1%
reduction of mean IOP of treated eyes compared to the control eyes (C57BL/6 normal mice; 4 mg/kg, 5 days after treatment): 47.3%
mean IOP of treated eyes (minimum) (C57BL/6 normal mice; 4 mg/kg, 5 days after treatment, p<0.01): 7.2±1.9 mmHg
duration of significant reduction of mean IOP (C57BL/6 normal mice; treated normal mice eyes (2.0 and 4.0 mg/kg)): 7 to 17 days
number of retinal ganglion cells in the treated eyes (retinal ganglion cells; 1.0 mg/kg PDT at 8 months, counted at 11 months of age): 3905±627 /mm^2
retinal ganglion cell survival, treated versus control eyes (retinal ganglion cells; 1.0 mg/kg PDT, 3 month period, p<0.05): significantly higher than control eyes; also recorded: loss of retinal ganglion cells over the 3 month period was significantly reduced
ocular complications (DBA/2J mice; 2 mg/kg, irradiated in 360 degrees of the corneoscleral limbus (preliminary)): severe damage such as corneal edema, hyphema, and corneal neovascularization occurred with high frequency
ocular complications (DBA/2J mice; after change of parameters (1.0 mg/kg, 180 degrees)): these complications were not seen

From patent US10272261B2, “Methods and compositions for treating ocular glaucoma” (Massachusetts Eye and Ear Infirmary, priority 2004, dated 2019)
